Entries after “also recorded” stand apart in the source; their conditions may differ. Non-standard residues stand in square brackets, D forms with d. Residues, ends and D or L forms follow the SMILES beside them.
What was measured:
[1] = test system: PC-3 cells xenograft tumors; experiment: Mouse xenograft model, tumor growth inhibition; assay type: in vivo; conditions: PC-3 xenograft in nude mice, 30 mg/kg intraperitoneally three times per week
Method: An in-vivo study was performed to determine tumor growth inhibition by [D-Trp]CJ-15,208 in a mouse xenograft model. PC-3 cells were injected subcutaneously in both rear flanks of nude mice. Once tumors were established, mice were treated intraperitoneally three times per week with either vehicle (50% DMSO, 45% PEG 400, and 5% polyoxyethylene (20) sorbitan monooleate (Tween 80); 3 mice, 6 tumors) or [D-Trp]CJ-15,208 (30 mg/kg in vehicle; 2 mice, 3 tumors). Tumor volume was measured using calipers.

LNCaP cells = experiment: Cell viability assay (Trypan Blue); assay type: cell-based, human; conditions: 48 h and 72 h
Method: (§1) The viability of prostate cancer cells was determined using Trypan Blue (Sigma) per the manufacturer's instructions. Cells were grown in 6 well plates to a density of 1×10^5 cells/well to 75% confluency and treated with compound in 0.5% DMSO at the indicated concentrations for 24-72 h, with 0.5% DMSO as the vehicle control. After treatment, the cell media from each well was collected. The cells were washed with phosphate buffer saline (PBS), trypsinized, and collected. All of the cells, combined media, and washes were centrifuged at 250×g for 5 min. The supernatant was discarded, and the cell pellet was resuspended in 500 μL PBS. Trypan blue (10 μL) was added to 100 μL of resuspended cells, and the solution incubated for 10 min. The cell number in 10 μL was then counted using a hematocytometer. Viable cells (not stained) were distinguished from dead cells (colored blue) and the % viable cells calculated as follows: [(number of white cells)/(number of total cells (white+blue))]*100 and compared with untreated cells.^16

22Rv1 cells = experiment: Cell viability assay (Trypan Blue); assay type: cell-based, human; conditions: 48 h and 72 h
Method: as §1

PC-3 cells = experiment: Cell viability assay (Trypan Blue); assay type: cell-based, human; conditions: 48 h and 72 h
Method: as §1

BPH-1 cells = experiment: Cell proliferation assay (WST-1); assay type: cell-based
Method: (§2) Human prostate cancer PC-3 cells were cultured and maintained in EMEM (ATCC), non-prostate HEK (human embryonic kidney) cells were cultured in DMEM, human prostate cancer DU145, LNCaP, 22Rv1 cells were cultured in RPMI 1640 (ATCC), and normal BPH-1 prostate cells and prostate cancer C4-2 cell line were cultured in RPMI 1640 (ATCC), all containing 10% fetal bovine serum (Atlanta Biologicals) and 1% penicillin/streptomycin (Invitrogen). Cells were grown at 37° C. in humidified air with 5% CO2 and passaged every fourth to fifth day following trypsinization with trypsin/EDTA (Invitrogen).^16
(§3) PC-3, LNCaP, DU 145, 22Rv1, C4-2, BPH-1, and HEK cells were grown to a density of 2000 cells/well in 96 well plates and treated with [D-Trp]CJ-15,208 or other peptides for 24-72 h in duplicate. Media containing [D-Trp]CJ-15,208 was changed every 24 h. The proliferation of treated cells was determined using the cell proliferation reagent WST-1 (Roche) per the manufacturer's instructions and compared to […] control cells in 1% DMSO in media. After treatment with compound 10 μL of the reagent was added to the well in 100 μL culture media, and the cells incubated at 37° C. for 30 min. The absorbance of the media in each well was measured at […] using a plate reader (BioTek). The percentage cell proliferation was normalized to vehicle treated control cells calculated as: (mean absorbance of sample/mean absorbance of control cells)×100.^38
(§4) Each experiment was performed in triplicate unless otherwise stated in the figure legend. GraphPad Prism 5 was used to determine IC50 values. Data represent the mean value+/−SEM. Compound vs. vehicle treated cells in the cell cycle phase and apoptosis experiments (FIGS. 5-8) were compared using the student's t-test, with a two-tailed, unpaired method, using the Prism software. The effects of compound vs. vehicle treatment on protein levels (FIG. 10) were evaluated by one-way ANOVA with Dunnett's test for multiple comparisons.

C4-2 cells = experiment: Cell proliferation assay (WST-1); assay type: cell-based
Method: as §2, §3, §4

c-Myc mRNA in PC-3 cells = experiment: c-Myc mRNA measurement (real-time PCR); assay type: cell-based, human; conditions: 10 μM, 0 h to 48 h
Method: PC-3 cells were grown in 10 cm petri dishes to 75% confluency, and then treated with [D-Trp] CJ-15,208 (10 μM) for 2-48 h. Cells were harvested and the total RNA from each sample was isolated using the Aurum Total RNA Mini Kit #732-6820 (Bio-Rad) per the manufacturer's instructions. The RNA concentration in the sample was determined using a NanoDrop ND-1000 spectrophotometer. Total RNA (1 μg) from each sample was used to synthesize cDNA using the iScript cDNA Synthesis Kit (BioRad). Real-time PCR was performed with a Power-SYBR Green PCR Master Mix (Applied Biosystems) using the following thermal cycles: initial activation at 95° C. for 5 min, followed by 40 cycles of 95° C. for 15 s and 60° C. for 1 min. The fluorescence was determined at the melting temperature of the product for 20 s (ABI PRISM 7000 Sequence Detection System, Applied Biosystems). The following primer sets were used to amplify regions of c-Myc and GAPDH (internal control): c-Myc (forward: 5′-CTG GTG CTC CAT GAG GAG-3′ (SEQ ID NO: 1), reverse: 5′-AGG TGA TCC AGA CTC TGA C-3′ SEQ ID NO: 2)) and GAPDH (forward: 5′-CCA TGG AGA AGG CTG GGG-3′ (SEQ ID NO: 3), reverse: 5′-CAAATGTGTCATGGATGACC-3′ SEQ ID NO: 4)). The levels of c-Myc mRNA were normalized to the GAPDH mRNA levels.^37

With `O=C1N[C@H](Cc2c[nH]c3ccccc23)C(=O)N[C@@H](Cc2ccccc2)C(=O)N2CCC[C@@H]2C(=O)N[C@H]1Cc1ccccc1` [[D-Trp]CJ-15,208, cyclo[Phe-D-Pro-Phe-D-Trp]] (cyclo(F[dP]F[dW])) the “tumor growth compared to vehicle” value [1] was “decrease in tumor growth”, the “cell death (Trypan blue)” value (LNCaP cells) was “resulted in cell death” and the “cell death (Trypan blue)” value (22Rv1 cells) was “resulted in cell death”. For the same compound, the “cell death (Trypan blue)” value (PC-3 cells) was “resulted in cell death”, the “IC50, cell growth” value (BPH-1 cells; 48 h) was “No effect” and the “IC50, cell growth” value (BPH-1 cells; 72 h) was “No effect”. The “effect on cell proliferation / cytotoxicity” value (BPH-1 cells; time not stated) was “No cytotoxicity was observed; also recorded: did not prevent cell proliferation”, the “IC50, cell growth” value (C4-2 cells; 48 h) was “No effect” and the “IC50, cell growth” value (C4-2 cells; 72 h) was “No effect”. The “effect on cell proliferation” value (C4-2 cells; time not stated) was “no effect; also recorded: did not prevent cell proliferation” and the “c-Myc mRNA expression” value (c-Myc mRNA in PC-3 cells) was “did not affect mRNA expression; also recorded: did not alter cmyc mRNA levels”.
